Measurements taken from patent US20060094013A1, “Salt-inducible kinases 2 and use thereof” (priority 2002, published 2006).

Key:
mouse SIK2 = molecular target: T1, mouse SIK2 (Mus musculus, UniProt Q8CFH6); test: Protein-phosphorylating activity of purified GST-mSIK2 (auto-phosphorylation and GST-Syntide 2 phosphorylation, 32P, SDS-PAGE); format: biochemical
T1 construct: the full-length cDNA in the protein translation region of SIK2 was amplified by the RT-PCR method; made in house; host or cells: COS-7
Description: The obtained GST-mSIK2 was mixed with 1 μl of GST-Syntide 2 (Lin et al., as describe above) and [^32P]-[…] (37 kBq; manufactured by ICN) in the presence of a 50 mM Tris-HCl buffer solution (pH 8.0) and 10 mM MnCl2 (20 μl in total). The mixture was allowed to react at 30° C. for 1 hour. The reaction was then terminated by adding 10 μl of an SDS-sample buffer and heating at 100° C. for 5 minutes. 10 μl of the reacted sample was separated using 15% SDS-PAGE, and the SDS-PAGE gel was then dried. The intake of ^32P was detected by exposing it to light for 30 minutes, using an X-ray film (MS-film; manufactured by Kodac). […] For comparison purpose, GST-rat SIK1 and GST-rat SIK1 (K56M) were subjected to the same experiment. Consequently, the same results were obtained.
A GST-mSIK2 protein that was allowed to express in COS-7 cells and then purified was mixed with DMSO solutions containing 5% DMSO and 5% each of 1, 10, 100 nM staurosporine (Sigma) ina reaction system in the test tube used in Example 3. Thereafter, phosphorylating activity was detected by the SDS-PAGE method, so as to evaluate the inhibition of enzyme activity of mouse SIK2 by staurosporine. […] The auto-phosphorylating activity and GST-Syntide 2-phosphorylating activity of GST-mSIK2 were approximately 30% inhibited even by the single use of DMSO. […] It was inhibited by 1 nM staurosporine until the residual activity became approximately 20%. By 10 nM and 100 nM staurosporines, it was almost 100% inhibited.

SIK [1] = test: Immunostaining of dexamethasone-induced SIK in 3T3-L1 cells with antibodies specific for the phosphorylation state; format: cell-based
Description: 3T3-L1 cells were inoculated on 96-well plates, and the cells were cultured until they became confluent. The medium placed in such a plate was DMEM/10% FCS. The culture was carried out at 37° C. in 5% CO2. Thereafter, dexamethasone was added to each of the plates, thereby resulting in a concentration of dexamethasone of 1 μM, so that SIK was induced. After 1 hour had passed after the induction, an SIK inhibitor, staurosporine, was added to the plates, thereby resulting in concentrations of 10, 100, and 1,000 nM. Thereafter, the culture was further carried out for 1 hour. […] Subsequently, the cells were added to PBS containing 4% paraformaldehyde, and the mixture was then left at room temperature for 15 minutes, so that the cells were immobilized. Thereafter, the cells were washed with PBS 4 times, and they were then allowed to react with a blocking solution obtained by dissolving 1% skimmed milk in TBST (TBS containing 0.1% Tween 20). Subsequently, 100 μl of antiserum (500 times diluted) containing an antibody binding to SIK1 wherein serine at position 577 is phosphorylated, an antibody binding to SIK1 wherein threonine at position 182 and serine at position 186 are phosphorylated, an anti-SIK antibody, or an antibody binding to SIK1 wherein serine at position 577 is not phosphorylated, was added to the same above blocking solution. The obtained mixture was reacted overnight. After completion of the reaction overnight, an unreacted antibody portion was eliminated by washing with PBS 4 times. A solution obtained by 1,000 times diluting an HRP-labeled anti-rabbit IgG secondary antibody was added to a reaction solution obtained by dissolving 1% skimmed milk in TBS, and the mixture was then reacted at room temperature for 2 hours. Thereafter, the resultant product was washed with PBS 4 times. The antigen-antibody reaction was visualized using Konica Immuno Stain HRP reagent (manufactured by Konica).

SIK2 gene = test: SIK2 mRNA level after incubation with hormones (Northern blot); format: cell-based; conditions: used singly, 2 hours; insulin 1 μg/ml, cAMP 1 mM, dexamethasone 1 μM
Description: The SIK2 gene was incubated with each of these hormones, and with the mixture consisting of the 3 types of hormones, for 2 hours. Thereafter, the mRNA level of SIK2 was measured. […] The measurement was carried out by the Northern blot analysis using cDNA probes.

CRE = CRE luciferase reporter assay in precursor fat cells 3T3-L1; format: cell-based; conditions: 50 ng/ml; SIK2 not highly expressed
Description: For the purpose of detecting the CRE transcription-suppressing activity of SIK2, using Lipofectoamin 200 reagent (2 μl; manufactured by Invitrogen), 200 ng each of pTarget-SIK2 and pTarget-SIK2 (K49M), together with an expression vector (pTAL-CRE; 200 ng; manufactured by Clontech) in which a luciferase gene is located under the control of CRE, were introduced into precursor fat cells 3T3-L1. Moreover, mSIK2 (S587A) having a destroyed PKA phosphorylated portion, which was predicted to exist in mouse SIK2 domain 3 from the findings regarding rat SIK1, was introduced therein, using oligo DNA represented by SEQ ID NO: 16.
In the thus produced mSIK2 (S587A), serine at position 587 was substituted with alanine with respect to the full-length SIK2. For correction of introduction efficiency, a vector (pRL-SC40; 30 ng; manufactured by Promega) that allows luciferase derived from Renilla to express under an SV40 promoter was co-introduced therein. 16 hours later, the cells were stimulated with forskolin (50 μM) for 6 hours, so as to activate CRE. Thereafter, the cells were recovered, and the expression level of a reporter gene was analyzed using Dual Luciferase Assay kit (manufactured by Promega).
The corrected pTAL-CRE-derived activity was divided by the activity derived from pTAL, so as to obtain a specific activity derived from CRE. […]

Gal-CREB (full-length) = test: Gal4-CREB (full-length) luciferase reporter assay; format: cell-based; conditions: 50 ng/ml
Description: (§1) In addition, CREB was introduced into the N-terminal side of the Gal4 protein of budding yeast (Gal4 DNA binding domain; Gal4DB). Using a plasmid wherein a reporter gene (fire fly luciferase) was introduced downstream of a promoter having a sequence consisting of 5 consecutive Gal4-binding sequences, the ability of DB to transcribe CREB without the medium of CRE was analyzed. In the case of a Gal-CREB (full-length) system, since it has a bZIP domain, the transcription was inhibited by SIK2 and TNFα (refer to FIG. 9B).

Gal4-CREB(-bZIP) = Gal4-CREB(-bZIP) luciferase reporter assay; format: cell-based; conditions: 50 ng/ml
Description: as §1

SIK [2] = molecular target: T2, SIK (Mus musculus, UniProt Q8CFH6); test: Phosphorylating activity of GST-SIK2 on Syntide 2 in the presence of a p300 peptide (method of Lin et al.); format: biochemical; conditions: GST-SIK2 expressed in COS-7 cells
T2 construct: the full-length cDNA in the protein translation region of SIK2 was amplified by the RT-PCR method; made in house; host or cells: COS-7
Description: It was studied whether or not a peptide p300 is phosphorylated by SIK when serine at position 89 in p300 is substituted with alanine (S89A). Moreover, it was also studied whether or not the peptide p300 [84-93 (S89A)] can inhibit the phosphorylating activity of SIK. When the activity of SIK2 was measured by the method of Lin et al., a DMSO solution containing 5% DMSO (dimethyl sulfoxide) and staurosporine was added. SIK2 was allowed to express in the form of a GST binding form in COS-7 cells, and it was then purified using GST-Mirospin kit from Amersham Pharmacia.
The left lane and the central lane show the results regarding a synthetic substrate (Syntide 2) phosphorylated by SIK.

[3] = tested on: CRE-suppressing activity of SIK; test: CRE activity in cells with PKA and SIK, peptide bound to the GFPC carrier; format: cell-based; conditions: peptide bound to C-terminus of GFP; PKA and SIK present
From the text: GFPC is a C-terminus binding-type green fluorescent protein. GFPC is used as a peptide carrier, wherein a peptide of interest binds to the C-terminus of GFP. […] The grey one is CRE activity obtained when both PKA and SIK exist.

[4] = 10, 100, 1,000 nM staurosporine

T1 sequence (Q8CFH6 whole entry): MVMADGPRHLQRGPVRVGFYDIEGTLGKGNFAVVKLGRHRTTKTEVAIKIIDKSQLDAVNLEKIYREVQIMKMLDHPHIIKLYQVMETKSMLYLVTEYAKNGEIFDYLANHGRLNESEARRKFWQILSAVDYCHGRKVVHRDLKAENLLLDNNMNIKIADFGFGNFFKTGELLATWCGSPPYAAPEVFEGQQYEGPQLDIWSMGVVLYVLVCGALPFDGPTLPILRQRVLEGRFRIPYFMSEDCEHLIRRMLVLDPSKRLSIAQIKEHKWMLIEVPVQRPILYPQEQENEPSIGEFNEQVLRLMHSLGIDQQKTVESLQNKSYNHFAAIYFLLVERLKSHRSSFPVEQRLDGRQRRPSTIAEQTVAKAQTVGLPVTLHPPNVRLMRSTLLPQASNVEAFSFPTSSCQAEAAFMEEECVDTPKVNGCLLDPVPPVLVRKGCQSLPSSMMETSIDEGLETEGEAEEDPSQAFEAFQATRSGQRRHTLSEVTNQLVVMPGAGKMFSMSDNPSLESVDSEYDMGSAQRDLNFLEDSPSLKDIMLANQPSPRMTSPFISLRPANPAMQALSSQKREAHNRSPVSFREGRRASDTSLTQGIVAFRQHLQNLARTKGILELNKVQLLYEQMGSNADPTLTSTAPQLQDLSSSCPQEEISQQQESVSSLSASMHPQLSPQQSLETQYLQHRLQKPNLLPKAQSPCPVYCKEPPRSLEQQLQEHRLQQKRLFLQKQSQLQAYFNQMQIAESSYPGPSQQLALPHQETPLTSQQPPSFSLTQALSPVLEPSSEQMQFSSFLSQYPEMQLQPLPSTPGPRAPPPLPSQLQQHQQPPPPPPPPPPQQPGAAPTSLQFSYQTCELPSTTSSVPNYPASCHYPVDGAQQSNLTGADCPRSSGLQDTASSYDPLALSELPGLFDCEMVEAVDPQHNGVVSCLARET
T2 sequence (Q8CFH6 whole entry): as above

C[S+](C)[O-] [DMSO, dimethyl sulfoxide]
inhibition of auto-phosphorylating activity and GST-Syntide 2-phosphorylating activity of GST-mSIK2 (mouse SIK2; single use of DMSO (5% DMSO)): approximately 30%

CN[C@@H]1C[C@H]2O[C@@](C)([C@@H]1OC)n1c3ccccc3c3c4c(c5c6ccccc6n2c5c31)C(=O)NC4 [staurosporine]
residual phosphorylating activity of SIK2 (mouse SIK2; 1 nM staurosporine in 5% DMSO solution): approximately 20% | inhibition at 0.01 µM (mouse SIK2; 10 nM staurosporine): ~100% | inhibition at 0.1 µM (mouse SIK2; 100 nM staurosporine): ~100% | concentration dependence of inhibition of phosphorylating activity of SIK2 (mouse SIK2; 1, 10, 100 nM): concentration-dependently inhibited | reaction of anti-phosphorylation Ser577 antibody with SIK (SIK [1]; 10 nM staurosporine, 1 hour): significantly decreased | reaction of anti-phosphorylation Thr182-Ser186 antibody with SIK (SIK [1]; 10 nM staurosporine, 1 hour): significantly decreased | reaction of SIK with anti-SIK1 antibody (SIK [1]; [4]): not significantly decreased | reactivity of antibody binding to SIK1 wherein serine at position 577 is not phosphorylated (SIK [1]; [4]): increased depending on the concentration of staurosporine

insulin
effect on transcription of the SIK2 gene (mRNA level) (SIK2 gene): promoted the transcription of the SIK2 gene

TNFα
effect on activation of CRE due to PKA (CRE): sufficiently suppressed the activation of CRE due to PKA | effect on transcription in Gal-CREB (full-length) system (Gal-CREB (full-length)): inhibited | effect on transcription in Gal4-CREB(-bZIP) system (Gal4-CREB(-bZIP)): suppressed

p300 [84-93 (S89A)]: peptide p300 residues 84-93 with serine at position 89 substituted with alanine; bound to GFPC carrier in the cell test (LLRSGASPNL)
effect on enzyme activity of SIK (Syntide 2 phosphorylation) (SIK [2]): inhibits the enzyme activity of SIK | effect on CRE-suppressing activity of SIK in cells [3]: inhibits the CRE-suppressing activity of SIK in cells
